# Measurements published in patent US20120220488A1, “HEART AGING BIOMARKERS AND METHODS OF USE” (priority 2009, published 2012).
# Legend:
# Format in all cases: in vivo
# Wnt pathway genes = test: Wnt pathway gene expression in aged heart, Study 2; settings: Study 2, mouse aged heart; all but three of the genes of Table 2/3
# Text: Two public rodent cardiac aging gene expression data sets were selected from the NCBI's Gene Expression Omnibus (GEO): (1) The University of Washington's rat study (UW) (Linford J L et al. (2007) Transcriptional Response to Aging and Calorie Restriction in Heart and Adipose Tissue. Aging Cell 6: 673-688)) (Study 1); and (2) LifeGen's mouse study (Barger J L et al. (2008) A Low Dose of Dietary Resveratrol partially Mimics Calorie Restriction and Retards Aging Parameters in Mice. PLoS ONE 3(6): 1-10) (Study 2). Materials and methods for the two studies are shown in the references. A third data set came from an unpublished mouse cardiac aging study. In that study, mice were divided into two groups (n=7) and were fed with control diet according to the proceedings in the Barger study. […]
# To determine the impact of gene expression changes in the systems level, pathway analysis was conducted on the data sets from Study 2 and Study 3 using GenMAPP and MAPPFinder software (Salomonis, K Hanspers, A C Zambon, K Vranizan, S C Lawlor, K D Dahlquist, S W Doniger, J Stuart, B R Conklin, and A R Pico. GenMAPP 2: new features and resources for pathway analysis. BMC Bioinformatics, June 2007; 8: 217). […] The inventors determined that the Wnt signaling pathway was among those with most significant associations (adjusted p value of 0.011 in both the Study 2 and Study 3 data sets). […]
# Ctnnb1 (beta-catenin) = test: Microarray gene expression in heart tissue, Study 2; settings: Study 2, mouse heart tissue, old (30) + Resveratrol vs old; for Fold Change Resv vs. Old, Ctnnb1(1): Ctnnb1 probe 1
# Text: (§1) Two public rodent cardiac aging gene expression data sets were selected from the NCBI's Gene Expression Omnibus (GEO): (1) The University of Washington's rat study (UW) (Linford J L et al. (2007) Transcriptional Response to Aging and Calorie Restriction in Heart and Adipose Tissue. Aging Cell 6: 673-688)) (Study 1); and (2) LifeGen's mouse study (Barger J L et al. (2008) A Low Dose of Dietary Resveratrol partially Mimics Calorie Restriction and Retards Aging Parameters in Mice. PLoS ONE 3(6): 1-10) (Study 2). Materials and methods for the two studies are shown in the references. A third data set came from an unpublished mouse cardiac aging study. In that study, mice were divided into two groups (n=7) and were fed with control diet according to the proceedings in the Barger study. Mice were sacrificed at the ages of 5 months (young group) and 25 months (old group). Heart tissues were collected and subject to microarray gene expression assays (Study 3). In Study 2 and Study 3, Affymetrix mouse genome 430 2.0 gene chips were used. In Study 1, Affymetrix rat genome 230 2.0 gene chips were used. A description of the three studies is outlined in Table 1.
# (§2) Data were first inspected for quality and examined for possible outliers. Three samples, one from each Study, were identified as outliers and were removed from further analysis. Differential genes were identified between young and old groups in each Study using Significance Analysis of Microarrays (SAM) algorithm (Tusher, Tibshirani and Chu (2001) Significance analysis of microarrays applied to the ionizing radiation response. PNAS 2001 98: 5116-5121). The selection criteria include magnitude of expression change (fold>=1.2) and false discovery rate (FDR<0.5%).
# Genes in the Wnt pathway were further examined for their expressional changes. […] Those genes/proteins are listed in Table 2, along with respective representative GenBank Accession Numbers, and the Study 2 results are shown in Table 3. The expression of these genes was also examined in the calorie restricted (CR) group and resveratrol (“Resv”) group. […]
# Camk2d = test: as above; settings: Study 2, mouse heart tissue, old (30) + Resveratrol vs old; probe 1427763_a_at
# Text: as §1, §2
# (§3) Genes in the Wnt pathway were further examined for their expressional changes. […] Those genes/proteins are listed in Table 2, along with respective representative GenBank Accession Numbers, and the Study 2 results are shown in Table 3. The expression of these genes was also examined in the calorie restricted (CR) group and resveratrol (“Resv”) group.
# Rac1 = test: as above; settings: Study 2, mouse heart tissue, old (30) + Resveratrol vs old; probe 1423734_at
# Text: as §1, §2, §3
# Magi3 = test: as above; settings: Study 2, mouse heart tissue, old (30) + Resveratrol vs old; probe 1421035_a_at
# Text: as §1, §2, §3
# Mapk1 = test: as above; settings: Study 2, mouse heart tissue, old (30) + Resveratrol vs old; probe 1426585_s_at
# Text: as §1, §2, §3
# Senp2 = test: as above; settings: Study 2, mouse heart tissue, old (30) + Resveratrol vs old; probe 1425465_a_at
# Text: as §1, §2, §3
# Pias4 = test: as above; settings: Study 2, mouse heart tissue, old (30) + Resveratrol vs old; probe 1455394_at
# Text: as §1, §2, §3
# Smad3 = test: as above; settings: Study 2, mouse heart tissue, old (30) + Resveratrol vs old; probe 1450471_at
# Text: as §1, §2, §3
# Akt1 = test: as above; settings: Study 2, mouse heart tissue, old (30) + Resveratrol vs old; probe 1425711_a_at
# Text: as §1, §2, §3
# Ccnd1 = test: as above; settings: Study 2, mouse heart tissue, old (30) + Resveratrol vs old; probe 1448698_at
# Text: as §1, §2, §3
# Mark2 = test: as above; settings: Study 2, mouse heart tissue, old (30) + Resveratrol vs old; probe 1435889_at
# Text: as §1, §2, §3
# Dab2 = test: as above; settings: Study 2, mouse heart tissue, old (30) + Resveratrol vs old; probe 1430604_a_at
# Text: as §1, §2, §3
# Dlgh1 = test: as above; settings: Study 2, mouse heart tissue, old (30) + Resveratrol vs old; probe 1450768_at
# Text: as §1, §2, §3
smiles,measurement,setting,value
"Oc1ccc(C=Cc2cc(O)cc(O)c2)cc1 [Resv, resveratrol]","Expression of Wnt pathway genes decreased in aged heart, after treatment",Wnt pathway genes,elevated to their young levels
same,"Fold Change Resv vs. Old, Ctnnb1(1)",Ctnnb1 (beta-catenin),2.787 fold
same,"Fold Change Resv vs. Old, Ctnnb1(1)",Ctnnb1 (beta-catenin); listed as Resveratrol,2.79 fold
same,"Fold Change Resv vs. Old, Ctnnb1(2)",Ctnnb1 (beta-catenin); Ctnnb1 probe 2,2.017 fold
same,"Fold Change Resv vs. Old, Camk2d",Camk2d,1.235 fold
same,"Fold Change Resv vs. Old, Rac1",Rac1,1.509 fold
same,"Fold Change Resv vs. Old, Magi3",Magi3,1.244 fold
same,"Fold Change Resv vs. Old, Mapk1",Mapk1,−1.020 fold
same,"Fold Change Resv vs. Old, Senp2",Senp2,1.261 fold
same,"Fold Change Resv vs. Old, Pias4",Pias4,−1.495 fold
same,"Fold Change Resv vs. Old, Smad3",Smad3,1.285 fold
same,"Fold Change Resv vs. Old, Akt1",Akt1,−1.315 fold
same,"Fold Change Resv vs. Old, Ccnd1",Ccnd1,−1.158 fold
same,"Fold Change Resv vs. Old, Mark2",Mark2,−2.113 fold
same,"Fold Change Resv vs. Old, Dab2",Dab2,1.227 fold
same,"Fold Change Resv vs. Old, Dlgh1",Dlgh1,1.150 fold
